According to US20240226228A1, “ANTIMICROBIAL PEPTOID HAVING IMPROVED SELECTIVITY AND ANTIMICROBIAL COMPOSITION COMPRISING SAME” (priority 2021, published 2024):
≈ marks a conversion by molar mass, not a printed value. Where two headings read alike, the source gives them in different places. Where a SMILES comes first, the peptide text is derived from it. [ ]: non-standard residue; d: D form. Gly(N(CH2)2(3-indolyl)) = O=C(O)CNCCc1c[nH]c2ccccc12; Gly(N-CH2CH2-imidazol-4-yl) = O=C(O)CNCCc1c[nH]cn1; Nspe = C[C@H](NCC(=O)O)c1ccccc1; Nphe = O=C(O)CNCc1ccccc1; Nlys = NCCCCNCC(=O)O

Legend:
[1] = tested on: red blood cells; test: Hemolysis assay; format: cell-based, Sprague-Dawley mouse
Procedure, shortened: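 Peptoid is mixed with 10% (v/v) PBS-washed erythrocytes (male Sprague-Dawley […], 13 weeks) and held 1 h at 37 °C. Hemolysis is calculated from 540 nm absorbance of the supernatant, with PBS as 0% and Triton X-100 as 100%.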

[2] = tested on: E. coli ATCC25922
Description: (§1) To measure the antimicrobial activity of the peptoids synthesized in Example 1, an E. coli ATCC25922 strain as gram-negative bacteria and an S. aureus KCTC25923 strain as gram-positive bacteris, were treated with the peptoids, followed by measuring the minimum inhibitory concentration (MIC). Peptoids 1 and 2 are antimicrobial peptoids known in the art, and used as controls for comparing antimicrobial activity with a novel peptoid.
(§2) Specifically, the S. aureus KCTC25923 or E. coli ATCC25922 strain was inoculated into a Mueller Hinton Broth (MHB2) liquid medium in which cations had been adjusted in the medium, cultured at 37° C. for 18 hours, subcultured, and then incubated for 4 hours. Afterward, for each bacterial strain, an optical density (OD, 0.001) was adjusted so that the bacterial count became 2×10^5 to 5×10^5 colony-forming units (CFU) per mL, which was then diluted with a MHB2 liquid medium containing 0.02% bovine serum albumin and 0.001% acetic acid, and dispensed at 100 μL into a 96-well microplate. Using sterile water, a peptoid stock 40 times stronger than a concentration to be tested was subjected to two-fold serial dilution and assessed at six different concentrations, and the maximum value of the peptoid concentrations was 25 μM. Subsequently, the plate was incubated at 37° C. for 24 hours. Afterward, optical density (OD) values at 600 nm were measured using a microplate reader (Bio-Rad).
(§3) Each MIC value was determined as the average value of a value obtained through three independent experiments.
(§4) Referring to Table 22, to measure the antimicrobial activity of the peptoids synthesized in Example 3, an MIC was measured by treating gram-negative bacteria, that is, the E. coli ATCC25922 strain, and gram-positive bacteria, that is, the S. aureus ATCC25923 strain, with the peptoids. Here, Peptoid 1 is a conventionally known antimicrobial peptoid, and Omiganan is a derivative of indolicidin, which is an antimicrobial peptide, under clinical development, and was used as a control for comparing antimicrobial activity with the novel peptoid.

[3] = tested on: S. aureus ATCC 25923
Description: as §1, §2, §3, §4

[4] = Tables 11-13, 24 hours at 37° C., maximum concentration 25 μM
[5] = Table 18, TFA salt vs counter ion-substituted (HCl, AcOH) peptoids

| Compound | HC10 [1] | HC50 [1] | Hmax (100 μM) [1] | MIC E. coli ATCC25922 [2, 4] | MIC S. aureus ATCC 25923 [3, 4] | MIC E. coli ATCC25922 [2, 5] | MIC S. aureus ATCC 25923 [3, 5] | MIC E. coli ATCC25922 ([2]; ATCC25922) | MIC S. aureus ATCC 25923 ([3]; ATCC 25923) |
| --- | --- | --- | --- | --- | --- | --- | --- | --- | --- |
| NCCCCNCC(=O)N(CC(=O)N(CC(=O)N(CCCCN)CC(=O)N(CC(=O)N(CC(=O)N(CCCCN)CC(=O)N(CC(=O)N(CC(=O)N(CCCCN)CC(=O)N(CC(=O)N(CC(N)=O)Cc1ccccc1)Cc1ccccc1)Cc1ccccc1)Cc1ccccc1)Cc1ccccc1)Cc1ccccc1)Cc1ccccc1)Cc1ccccc1 [Peptoid 2] (H-[Nlys][Nphe][Nphe][Nlys][Nphe][Nphe][Nlys][Nphe][Nphe][Nlys][Nphe][Nphe]-NH2) | 20.4 µM | > 100.0 µM | 17.7 ± 1.1% | 12.5 µM (≈ 21.3 µg/mL) | 3.1 µM (≈ 5.29 µg/mL) | – | – | – | – |
| C[C@@H](c1ccccc1)N(CC(=O)N(CCc1c[nH]c2ccccc12)CC(N)=O)C(=O)CN(CCCCN)C(=O)CN(C(=O)CN(C(=O)CN(CCCCN)C(=O)CN(C(=O)CN(C(=O)CN(CCCCN)C(=O)CN(C(=O)CN(C(=O)CNCCCCN)[C@@H](C)c1ccccc1)[C@@H](C)c1ccccc1)[C@@H](C)c1ccccc1)[C@@H](C)c1ccccc1)[C@@H](C)c1ccccc1)[C@@H](C)c1ccccc1 [Peptoid 7] (H-[Nlys][Nspe][Nspe][Nlys][Nspe][Nspe][Nlys][Nspe][Nspe][Nlys][Nspe][Gly(N(CH2)2(3-indolyl))]-NH2) | 7.8 µM | 23.8 µM | 94.1 ± 4.3% | 6.3 µM (≈ 11.7 µg/mL) | 3.1 µM (≈ 5.76 µg/mL) | – | – | – | – |
| C[C@@H](c1ccccc1)N(CC(N)=O)C(=O)CN(C(=O)CN(CCCCN)C(=O)CN(C(=O)CN(C(=O)CN(CCCCN)C(=O)CN(CCc1c[nH]c2ccccc12)C(=O)CN(C(=O)CN(CCCCN)C(=O)CN(C(=O)CN(C(=O)CNCCCCN)[C@@H](C)c1ccccc1)[C@@H](C)c1ccccc1)[C@@H](C)c1ccccc1)[C@@H](C)c1ccccc1)[C@@H](C)c1ccccc1)[C@@H](C)c1ccccc1 [Peptoid 9] | 10.6 µM | 31.9 µM | 106.4 ± 0.6% | 3.1 µM (≈ 5.76 µg/mL) | 1.6 µM (≈ 2.97 µg/mL) | – | – | – | – |
| C[C@@H](c1ccccc1)N(CC(N)=O)C(=O)CN(C(=O)CN(CCCCN)C(=O)CN(C(=O)CN(C(=O)CN(CCCCN)C(=O)CN(C(=O)CN(C(=O)CN(CCCCN)C(=O)CN(CCc1c[nH]c2ccccc12)C(=O)CN(C(=O)CNCCCCN)[C@@H](C)c1ccccc1)[C@@H](C)c1ccccc1)[C@@H](C)c1ccccc1)[C@@H](C)c1ccccc1)[C@@H](C)c1ccccc1)[C@@H](C)c1ccccc1 [Peptoid 10-1] | 15.3 µM | 37.8 µM | 81.5 ± 7.4% | – | – | 6.3 µM | 3.1 µM | – | – |
| C[C@@H](c1ccccc1)N(CC(N)=O)C(=O)CN(C(=O)CN(CCCCN)C(=O)CN(C(=O)CN(C(=O)CN(CCCCN)C(=O)CN(C(=O)CN(C(=O)CN(CCCCN)C(=O)CN(CCc1c[nH]c2ccccc12)C(=O)CN(C(=O)CNCCCCN)[C@@H](C)c1ccccc1)[C@@H](C)c1ccccc1)[C@@H](C)c1ccccc1)[C@@H](C)c1ccccc1)[C@@H](C)c1ccccc1)[C@@H](C)c1ccccc1 [Peptoid 10-2] | 14.1 µM | 29.4 µM | 102.3 ± 11.3% | – | – | 6.3 µM | 1.6 µM | – | – |
| C[C@@H](c1ccccc1)N(CC(=O)N(CCCCN)CC(=O)N(CC(=O)N(CC(=O)N(CCCCN)CC(=O)N(CC(=O)N(CC(=O)N(CCCCN)CC(=O)N(CCc1c[nH]c2ccccc12)CC(=O)N(CCc1c[nH]c2ccccc12)CC(N)=O)[C@@H](C)c1ccccc1)[C@@H](C)c1ccccc1)[C@@H](C)c1ccccc1)[C@@H](C)c1ccccc1)C(=O)CN(C(=O)CNCCCCN)[C@@H](C)c1ccccc1 [Peptoid 11-1] (H-[Nlys][Nspe][Nspe][Nlys][Nspe][Nspe][Nlys][Nspe][Nspe][Nlys][Gly(N(CH2)2(3-indolyl))][Gly(N(CH2)2(3-indolyl))]-NH2) | 10.1 µM | 21.5 µM | 113.9 ± 1.7% | – | – | 3.1 µM | 3.1 µM | – | – |
| C[C@@H](c1ccccc1)N(CC(=O)N(CCCCN)CC(=O)N(CC(=O)N(CC(=O)N(CCCCN)CC(=O)N(CC(=O)N(CC(=O)N(CCCCN)CC(=O)N(CCc1c[nH]c2ccccc12)CC(=O)N(CCc1c[nH]c2ccccc12)CC(N)=O)[C@@H](C)c1ccccc1)[C@@H](C)c1ccccc1)[C@@H](C)c1ccccc1)[C@@H](C)c1ccccc1)C(=O)CN(C(=O)CNCCCCN)[C@@H](C)c1ccccc1 [Peptoid 11-2] (H-[Nlys][Nspe][Nspe][Nlys][Nspe][Nspe][Nlys][Nspe][Nspe][Nlys][Gly(N(CH2)2(3-indolyl))][Gly(N(CH2)2(3-indolyl))]-NH2) | 8.7 µM | 29.7 µM | 110.4 ± 0.2% | – | – | 3.1 µM | 1.6 µM | – | – |
| C[C@@H](c1ccccc1)N(CC(N)=O)C(=O)CN(C(=O)CN(CCCCN)C(=O)CN(CCc1c[nH]c2ccccc12)C(=O)CN(CCc1c[nH]c2ccccc12)C(=O)CN(CCCCN)C(=O)CN(C(=O)CN(C(=O)CN(CCCCN)C(=O)CN(C(=O)CN(C(=O)CNCCCCN)[C@@H](C)c1ccccc1)[C@@H](C)c1ccccc1)[C@@H](C)c1ccccc1)[C@@H](C)c1ccccc1)[C@@H](C)c1ccccc1 [Peptoid 12] | 29.1 µM | 65.2 µM | 87.4 ± 2.4% | 6.3 µM (≈ 12 µg/mL) | 1.6 µM (≈ 3.04 µg/mL) | – | – | – | – |
| C[C@@H](c1ccccc1)N(CC(N)=O)C(=O)CN(CCCCN)C(=O)CN(CCCCN)C(=O)CN(CCc1c[nH]cn1)C(=O)CN(C(=O)CN(CCCCN)C(=O)CN(C(=O)CN(C(=O)CN(CCCCN)C(=O)CN(CCc1c[nH]c2ccccc12)C(=O)CN(CCc1c[nH]c2ccccc12)C(=O)CNCCCCN)[C@@H](C)c1ccccc1)[C@@H](C)c1ccccc1)[C@@H](C)c1ccccc1 [Peptoid 70] (H-[Nlys][Gly(N(CH2)2(3-indolyl))][Gly(N(CH2)2(3-indolyl))][Nlys][Nspe][Nspe][Nlys][Nspe][Gly(N-CH2CH2-imidazol-4-yl)][Nlys][Nlys][Nspe]-NH2) | – | – | – | – | – | – | – | >25 µM | >25 µM |
| C[C@@H](c1ccccc1)N(CC(=O)N(CCCCN)CC(=O)N(CC(=O)N(CC(=O)N(CCCCN)CC(=O)N(CCCCN)CC(=O)N(CCc1c[nH]cn1)CC(N)=O)[C@@H](C)c1ccccc1)[C@@H](C)c1ccccc1)C(=O)CN(C(=O)CN(CCCCN)C(=O)CN(CCc1c[nH]c2ccccc12)C(=O)CN(CCc1c[nH]c2ccccc12)C(=O)CNCCCCN)[C@@H](C)c1ccccc1 [Peptoid 71] (H-[Nlys][Gly(N(CH2)2(3-indolyl))][Gly(N(CH2)2(3-indolyl))][Nlys][Nspe][Nspe][Nlys][Nspe][Nspe][Nlys][Nlys][Gly(N-CH2CH2-imidazol-4-yl)]-NH2) | – | – | – | – | – | – | – | >25 µM | >25 µM |
